biological target: T1, 5-hydroxytryptamine receptor 6 (Homo sapiens, UniProt P50406); experiment: Binding affinity to 5-HT6 receptor (unknown origin)
T1 sequence (P50406 whole entry): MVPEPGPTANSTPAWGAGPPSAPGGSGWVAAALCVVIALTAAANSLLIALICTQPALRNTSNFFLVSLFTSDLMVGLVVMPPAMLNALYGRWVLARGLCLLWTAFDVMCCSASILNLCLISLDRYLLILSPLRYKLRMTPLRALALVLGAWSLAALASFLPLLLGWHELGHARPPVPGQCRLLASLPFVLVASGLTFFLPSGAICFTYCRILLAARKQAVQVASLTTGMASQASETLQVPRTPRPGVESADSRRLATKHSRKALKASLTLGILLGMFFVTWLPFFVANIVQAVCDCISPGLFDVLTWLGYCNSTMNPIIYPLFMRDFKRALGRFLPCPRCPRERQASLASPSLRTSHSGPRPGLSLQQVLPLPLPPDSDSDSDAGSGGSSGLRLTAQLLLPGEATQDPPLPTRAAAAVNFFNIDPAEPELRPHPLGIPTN

Row | Ki [nM] | SMILES
1 | 58 | CNc1cc(NS(=O)(=O)c2ccc(N)cc2)nc(NC)n1

biological target: T1, 5-hydroxytryptamine receptor 6; experiment: Displacement of [3H]LSD from Homo sapiens (human) 5-HT6 receptor expressed in Homo sapiens (human) HEK293 cells; format: cell-based

Row | SMILES | Ki [nM]
2 | CCc1[nH]c2ccncc2c1CCN | 4900
3 | CN(C)CCc1c[nH]c2ccncc12 | 100
4 | CCc1[nH]c2ccncc2c1CCN(C)C | 2900
5 | CN(C)CCc1c(-c2ccccc2)[nH]c2ccncc12 | 270
6 | NCCc1c(-c2ccccc2)[nH]c2ccncc12 | 2600
7 | CN(C)CCc1cn(S(=O)(=O)c2ccccc2)c2ccncc12 | 84
8 | NCCc1c[nH]c2ccncc12 [5-Azatryptamine] | 64
9 | Cc1cn(S(=O)(=O)c2ccc(N)cc2)c2ccncc12 | 41
